Data: ChEMBL document CHEMBL6114992, “Design, synthesis, biological evaluation, and mechanism of action of new pyrazines as anticancer agents in vitro and in vivo” (Bioorg Med Chem, 2025)
Calls of active or inactive are those of the source. The calls are words filed in the database; no cut-off is given here.

Legend:
KG-1 [1] = assay: Antiproliferative activity against human KG-1 cells assessed as inhibition of cell growth incubated for 72 hrs by MTT assay; assay type: functional, cell-based; conditions: KG-1, 72 h
SK-OV-3 [2] = assay: Induction of apoptosis in human SK-OV-3 cells assessed as late apoptotic cells at 2.5 uM incubated for 48 hrs by Annexin V-FITC/PI staining based flow cytometry (reference value: 4.51 %); assay type: functional
SK-OV-3 [3] = assay: Induction of apoptosis in human SK-OV-3 cells assessed as necrotic cells at 5 uM incubated for 48 hrs by Annexin V-FITC/PI staining based flow cytometry (reference value: 4.45 %); assay type: functional
KG-1 [4] = assay: Downregulation of YAP1 expression in human KG-1 cells incubated for 48 hrs by Western blot analysis; assay type: functional, cell-based; conditions: dose 0.5-2.5 µM
KG-1 [5] = assay: Upregulation of p21 expression in human KG-1 cells incubated for 48 hrs by Western blot analysis; assay type: functional, cell-based; conditions: dose 0.5-2.5 µM
KG-1 [6] = assay: Upregulation of Bax expression in human KG-1 cells incubated for 48 hrs by Western blot analysis; assay type: functional, cell-based; conditions: dose 0.5-2.5 µM
KG-1 [7] = assay: Downregulation of Bcl-XL expression in human KG-1 cells incubated for 48 hrs by Western blot analysis; assay type: functional, cell-based; conditions: dose 0.5-2.5 µM
SK-OV-3 [8] = assay: Downregulation of TAZ expression in human SK-OV-3 cells incubated for 48 hrs by Western blot analysis; assay type: functional, cell-based; conditions: dose 0.5-2.5 µM
KG-1 [9] = assay: Downregulation of c-Myc expression in human KG-1 cells incubated for 48 hrs by Western blot analysis; assay type: functional, cell-based; conditions: dose 0.5-2.5 µM
SK-OV-3 [10] = assay: Downregulation of c-Myc expression in human SK-OV-3 cells incubated for 48 hrs by Western blot analysis; assay type: functional, cell-based; conditions: dose 0.5-2.5 µM
[11] = target: Signal transducer and activator of transcription 3 (Homo sapiens) (UniProt P40763); assay: Inhibition of STAT3 phosphorylation in human SK-OV-3 cells at 0.5 to 2.5 uM incubated for 48 hrs by Western blot analysis; assay type: cell-based; conditions: dose 0.5-2.5 µM
Sequence of Signal transducer and activator of transcription 3 (Homo sapiens) (P40763 whole entry): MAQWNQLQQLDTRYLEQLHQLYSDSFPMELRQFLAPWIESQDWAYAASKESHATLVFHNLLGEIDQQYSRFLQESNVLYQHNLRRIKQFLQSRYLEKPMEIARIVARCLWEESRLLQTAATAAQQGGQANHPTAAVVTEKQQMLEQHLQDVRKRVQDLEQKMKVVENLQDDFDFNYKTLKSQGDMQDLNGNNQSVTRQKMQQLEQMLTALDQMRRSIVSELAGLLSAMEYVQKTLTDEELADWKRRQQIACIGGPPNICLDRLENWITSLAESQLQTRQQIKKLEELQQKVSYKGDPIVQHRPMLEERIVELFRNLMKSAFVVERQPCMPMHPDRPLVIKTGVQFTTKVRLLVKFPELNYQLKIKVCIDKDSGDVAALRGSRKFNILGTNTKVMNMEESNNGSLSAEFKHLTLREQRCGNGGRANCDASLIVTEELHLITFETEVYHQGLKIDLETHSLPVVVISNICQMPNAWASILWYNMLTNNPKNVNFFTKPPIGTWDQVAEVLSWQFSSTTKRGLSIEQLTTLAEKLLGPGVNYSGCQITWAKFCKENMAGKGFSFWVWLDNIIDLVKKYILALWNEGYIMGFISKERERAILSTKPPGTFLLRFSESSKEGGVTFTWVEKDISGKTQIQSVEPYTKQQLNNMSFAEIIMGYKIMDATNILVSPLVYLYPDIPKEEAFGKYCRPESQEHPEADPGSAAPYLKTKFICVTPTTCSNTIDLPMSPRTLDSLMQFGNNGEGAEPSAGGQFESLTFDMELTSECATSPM

SK-OV-3 [12] = assay: Induction of apoptosis in human SK-OV-3 cells assessed as viable cells at 1 uM incubated for 48 hrs by Annexin V-FITC/PI staining based flow cytometry (reference value: 90.97 %); assay type: functional; conditions: read-out: Activity
THP-1 [13] = assay: Induction of apoptosis in human THP-1 cells assessed as early apoptotic cells at 2.5 uM incubated for 48 hrs by Annexin V-FITC/PI staining based flow cytometry (reference value: 0.45 %); assay type: functional
THP-1 [14] = assay: Downregulation of Bcl-XL expression in human THP-1 cells incubated for 48 hrs by Western blot analysis; assay type: functional, cell-based; conditions: dose 0.5-2.5 µM
U-937 [15] = assay: Induction of apoptosis in human U-937 cells assessed as viable cells at 2.5 uM incubated for 48 hrs by Annexin V-FITC/PI staining based flow cytometry (reference value: 93.30 %); assay type: functional; conditions: read-out: Activity
U-937 [16] = assay: Induction of apoptosis in human U-937 cells assessed as late apoptotic cells at 2.5 uM incubated for 48 hrs by Annexin V-FITC/PI staining based flow cytometry (reference value: 1.96 %); assay type: functional
U-937 [17] = assay: Induction of apoptosis in human U-937 cells assessed as necrotic cells at 0.5 uM incubated for 48 hrs by Annexin V-FITC/PI staining based flow cytometry (reference value: 2.03 %); assay type: functional
[18] = Toxicity in nude mouse xenografted with human SK-OV-3 cells assessed as histopathological change in lungs at 30 to 60 mg/kg, ip qd treated for 14 days by H and E staining based analysis; assay type: organism-based; conditions: in vivo, 336 h, dose 30-60 mg/kg, time 14 day
SK-OV-3 [19] = assay: Downregulation of GLI1 expression in human SK-OV-3 cells incubated for 48 hrs by Western blot analysis; assay type: functional, cell-based; conditions: dose 1-5 µM
THP-1 [20] = assay: Downregulation of Bcl-2 expression in human THP-1 cells incubated for 48 hrs by Western blot analysis; assay type: functional, cell-based; conditions: dose 0.5-2.5 µM
U-937 [21] = assay: Induction of apoptosis in human U-937 cells assessed as early apoptotic cells at 0.5 uM incubated for 48 hrs by Annexin V-FITC/PI staining based flow cytometry (reference value: 2.72 %); assay type: functional
U-937 [22] = assay: Induction of apoptosis in human U-937 cells assessed as change in mitochondrial membrane potential at 1 uM incubated for 48 hrs by JC-1 staining based flow cytometry (reference value: 2.20 %); assay type: functional
[23] = Toxicity in nude mouse xenografted with human SK-OV-3 cells assessed as histopathological change in heart at 30 to 60 mg/kg, ip qd treated for 14 days by H and E staining based analysis; assay type: organism-based; conditions: in vivo, 336 h, dose 30-60 mg/kg, time 14 day
SK-OV-3 [24] = assay: Antitumor activity against human SK-OV-3 cells xenografted in nude mouse assessed as reduction cell proliferation at 30 to 60 mg/kg, ip qd treated for 14 days by Ki67 staining based IHC analysis; assay type: functional, organism-based; conditions: dose 30-60 mg/kg, time 14.0 day
U-937 [25] = assay: Induction of apoptosis in human U-937 cells assessed as late apoptotic cells at 1 uM incubated for 48 hrs by Annexin V-FITC/PI staining based flow cytometry (reference value: 1.96 %); assay type: functional
[26] = Toxicity in nude mouse xenografted with human SK-OV-3 cells assessed as histopathological change in kidney at 30 to 60 mg/kg, ip qd treated for 14 days by H and E staining based analysis; assay type: organism-based; conditions: in vivo, 336 h, dose 30-60 mg/kg, time 14 day
THP-1 [27] = assay: Downregulation of TAZ expression in human THP-1 cells incubated for 48 hrs by Western blot analysis; assay type: functional, cell-based; conditions: dose 0.5-2.5 µM
[28] = target: Signal transducer and activator of transcription 3 (Homo sapiens) (UniProt P40763); assay: Inhibition of STAT3 phosphorylation in human U-937 cells at 0.5 to 2.5 uM incubated for 48 hrs by Western blot analysis; assay type: cell-based; conditions: dose 0.5-2.5 µM
U-937 [29] = assay: Induction of apoptosis in human U-937 cells assessed as necrotic cells at 2.5 uM incubated for 48 hrs by Annexin V-FITC/PI staining based flow cytometry (reference value: 2.03 %); assay type: functional
[30] = Toxicity in nude mouse xenografted with human SK-OV-3 cells assessed as body weight change at 30 to 60 mg/kg, ip qd treated for 14 days; assay type: organism-based; conditions: in vivo, 336 h, dose 30-60 mg/kg, time 14 day
SK-OV-3 [31] = assay: Antitumor activity against human SK-OV-3 cells xenografted in nude mouse assessed as tumor growth suppression at 30 to 60 mg/kg, ip qd treated for 14 days; assay type: functional, organism-based; conditions: dose 30-60 mg/kg, time 14.0 day
U-937 [32] = assay: Induction of apoptosis in human U-937 cells assessed as early apoptotic cells at 1 uM incubated for 48 hrs by Annexin V-FITC/PI staining based flow cytometry (reference value: 2.72 %); assay type: functional
U-937 [33] = assay: Downregulation of Bcl-2 expression in human U-937 cells incubated for 48 hrs by Western blot analysis; assay type: functional, cell-based
U-937 [34] = assay: Induction of apoptosis in human U-937 cells assessed as change in mitochondrial membrane potential at 2.5 uM incubated for 48 hrs by JC-1 staining based flow cytometry (reference value: 2.20 %); assay type: functional
U-937 [35] = assay: Induction of apoptosis in human U-937 cells assessed as late apoptotic cells at 0.5 uM incubated for 48 hrs by Annexin V-FITC/PI staining based flow cytometry (reference value: 1.96 %); assay type: functional
U-937 [36] = assay: Downregulation of XIAP expression in human U-937 cells incubated for 48 hrs by Western blot analysis; assay type: functional, cell-based
U-937 [37] = assay: Induction of apoptosis in human U-937 cells assessed as necrotic cells at 1 uM incubated for 48 hrs by Annexin V-FITC/PI staining based flow cytometry (reference value: 2.03 %); assay type: functional
[38] = Toxicity in nude mouse xenografted with human SK-OV-3 cells assessed as histopathological change in spleen at 30 to 60 mg/kg, ip qd treated for 14 days by H and E staining based analysis; assay type: organism-based; conditions: in vivo, 336 h, dose 30-60 mg/kg, time 14 day

Structure (SMILES): CCc1nccnc1C(=O)/C=C/c1ccccn1
- IC50 (KG-1 [1]): 0.63 µM
- Activity (SK-OV-3 [2]): 23.46%
- Activity (SK-OV-3 [3]): 8.84%
- Activity (KG-1 [4]): Dose-dependent-effect
- Activity (KG-1 [5]): Dose-dependent-effect
- Activity (KG-1 [6]): Dose-dependent-effect
- Activity (KG-1 [7]): Dose-dependent-effect
- Activity (SK-OV-3 [8]): Dose-dependent-effect
- Activity (KG-1 [9]): Dose-dependent-effect
- Activity (SK-OV-3 [10]): Dose-dependent-effect
- inhibition [11]: Active
- viability at 1 µM (SK-OV-3 [12]): 71.2%
- Activity (THP-1 [13]): 13.09%
- Activity (THP-1 [14]): Dose-dependent-effect

Structure (SMILES): Cc1nccnc1C(=O)/C=C/c1cccc(C#N)c1
- viability at 2.5 µM (U-937 [15]): 75.5%
- Activity (U-937 [16]): 9.73%
- IC50 (KG-1 [1]): 1.79 µM
- Activity (SK-OV-3 [2]): 26.65%
- Activity (SK-OV-3 [3]): 9.68%
- Activity (U-937 [17]): 2.64%
- Activity [18]: Non-toxic
- Activity (SK-OV-3 [19]): Dose-dependent-effect
- Activity (THP-1 [20]): Dose-dependent-effect
- Activity (U-937 [21]): 9.68%
- Activity (U-937 [22]): 3.68%
- Activity [23]: Non-toxic
- Activity (SK-OV-3 [24]): Active
- Activity (U-937 [25]): 9.69%
- Activity [26]: Non-toxic
- Activity (THP-1 [27]): Dose-dependent-effect
- inhibition [28]: Active
- Activity (U-937 [29]): 3.09%
- Activity [30]: Non-toxic
- viability at 1 µM (SK-OV-3 [12]): 72.4%
- Activity (SK-OV-3 [31]): Active
- Activity (U-937 [32]): 10.98%
- Activity (THP-1 [13]): 15.05%
- Activity (U-937 [33]): Dose-dependent-effect
- Activity (U-937 [34]): 4.53%
- Activity (U-937 [35]): 6.79%
- Activity (U-937 [36]): Dose-dependent-effect
- Activity (U-937 [37]): 3.14%
- Activity [38]: Non-toxic
